Read-outs that look alike come from different tables or passages of the source.
Format: physicochemical
Protocol: 1. Stress Testing of D-cycloserine Stability test was held with 500 mg of commercially available D-cycloserine from Macleods Pharma, opened and stored under high humidity (>90% RH or 75% RH) at room temperature, a high temperature (40° C. or 60° C.) or a light condition for 10 days. […] In the following experiments, the total impurity was set up to confirm the stability of D-cycloserine.

Appearance (0 day): White Powder
Total Impurity (%) (0 day): 0.59%
Moisture-absorption Weight Gain (%) (25° C., 75% RH, 10 days): 0.25%
Total Impurity (%) (25° C., 75% RH, 10 days): 1.71%
Moisture-absorption Weight Gain (%) (25° C., >90% RH, 10 days): 21.11%
Total Impurity (%) (25° C., >90% RH, 10 days): 86.64%
Appearance (40° C., 10 days): White Powder
Total Impurity (%) (40° C., 10 days): 0.70%
Appearance (60° C., 10 days): White Powder
Total Impurity (%) (60° C., 10 days): 0.66%
Stability (in words) (10 days): relatively stable at 40 °C and 60 °C
Appearance (Light, 10 days): White Powder
Total Impurity (%) (Light, 10 days): 0.96%
Compound: N[C@H]1CONC1=O (stereo in doubt) [D-cycloserine (Macleods Pharma), 4-amino-3-isoxazolidinone]

From patent US11291654B2, “Formulations of cycloserine compounds and applications thereof” (SyneuRx International (Taiwan) Corp., priority 2018, dated 2022)
